This assay addresses T1, human kiss1 receptor (GPR54) (Homo sapiens, UniProt Q969F8).
T1 construct: host or cells: NFAT-bla CHO-K1 cells (Chinese hamster ovary), purchased recombinant cell line
Nature of the assay: Kiss1 receptor (GPR54) binding activity of agonists, FRET detection in NFAT-bla CHO-K1 cells. To be noted: for pEC50: preliminary data, read-out: Preliminary measurement data (GPR54) EC50. In kind it is cell-based.

Setting [1] is: GPR54, measured according to the method of effect Embodiment 1.
Where [2] appears, read: human kiss1 receptor (GPR54), NFAT-bla CHO-K1 cells, FRET, method of effect Embodiment 1.

SMILES strings stand for the structures. pEC50: −log10 of the molar value. Where “and” joins values, the source holds several entries; their conditions need not be identical. Equal values may be shown once. Read-outs that look alike come from different tables or passages of the source. Starred links: 1 amine or outer side, 2 acyl side, 3 side chain; linkers in the order of their positions; H or OH if unused. Non-standard residues stand in square brackets, D forms with d. Residues, ends and D or L forms follow the SMILES beside them. *: point of attachment. X10 = CNC(=N)NCCC[C@H](NC(=O)[C@H](CC(C)C)NC(=O)NCN*)C(=O)N[C@@H](Cc1c[nH]c2ccccc12)C(N)=O; X6 = O=C([C@H](Cc1ccc(-n2cccn2)cc1)N[*:1])[*:2]; Phe(4-tBu) = CC(C)(C)c1ccc(C[C@H](N)C(=O)O)cc1; X16 = O=C(CCC(=O)[*:2])[C@H](Cc1ccccc1)N[*:1]; dPhe(2,4-Cl2) = N[C@H](Cc1ccc(Cl)cc1Cl)C(=O)O; X7 = c1ccc2c(C[C@H](N*)c3nn[nH]n3)c[nH]c2c1; PEG8 = NCCOCCOCCOCCOCCOCCOCCOCCOCCC(=O)O; X12 = O=C([C@@H]1Cc2ccccc2N1[*:1])[*:2]; Ala(2-furyl) = N[C@@H](Cc1ccco1)C(=O)O; Phe(4-F) = N[C@@H](Cc1ccc(F)cc1)C(=O)O; Pro(4,4-F2) = O=C(O)[C@@H]1CC(F)(F)CN1; dAla(2-furyl) = N[C@H](Cc1ccco1)C(=O)O; dPhe(4-F) = N[C@H](Cc1ccc(F)cc1)C(=O)O; Arg(Me) = CNC(=N)NCCC[C@H](N)C(=O)O; Hyp = O=C(O)[C@@H]1C[C@@H](O)CN1; 3Pal = N[C@@H](Cc1cccnc1)C(=O)O; azaPro = O=C(N1CCCN1[*:1])[*:2]; NMeL = CN[C@@H](CC(C)C)C(=O)O; Pip = O=C(O)[C@@H]1CCCCN1; Ac6c = NC1(C(=O)O)CCCCC1; Ac5c = NC1(C(=O)O)CCCC1; Deg = CCC(N)(CC)C(=O)O; azaGly = NNC(=O)O; βAla = NCCC(=O)O

T1 sequence (Q969F8 whole entry): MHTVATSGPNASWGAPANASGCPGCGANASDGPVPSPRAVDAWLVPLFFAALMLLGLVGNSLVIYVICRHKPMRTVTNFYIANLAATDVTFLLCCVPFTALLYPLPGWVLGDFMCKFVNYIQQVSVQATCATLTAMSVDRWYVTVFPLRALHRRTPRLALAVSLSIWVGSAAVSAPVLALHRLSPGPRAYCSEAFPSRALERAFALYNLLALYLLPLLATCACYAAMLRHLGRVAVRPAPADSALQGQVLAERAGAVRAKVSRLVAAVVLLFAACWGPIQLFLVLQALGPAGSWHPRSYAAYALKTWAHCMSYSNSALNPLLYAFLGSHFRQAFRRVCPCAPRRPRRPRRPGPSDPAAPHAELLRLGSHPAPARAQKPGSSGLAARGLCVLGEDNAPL
Description: Effect Embodiment 1 Determination of Kiss1 Receptor (GPR54) Binding Activity of Kiss1 Receptor (GPR54) Agonist
The binding activity test of each compound from the above the embodiments with kiss1 receptor (GPR54) was performed by fluorescence energy resonance transfer (FRET) detection technology to detect EC50 values of polypeptides and peptide analogs. The cells used in this experiment were NFAT-bla CHO-K1 cells (k1720, invitrogen, thermosher) that express human kiss1 receptor (GPR54). The specific operations were as follows:
Day 1: Seeding Cells in Plate
1. Microscope (CKX41, OLYMPUS), object lens×4 times, ocular lens×10 times. The cells were ensured in a good condition.
2. Digesting the cells, adding 3 ml of 0.05% pancreatin into a culture dish; cells were placed in a 37° C., 5% CO2 incubator for 2 minutes (Thermo Fisher). After the cells became round under the microscope, 7 ml of culture medium was added. The formula of culture medium was as follows: DMEM 90%, dialzedfbS10, NEAA 0.1 mM, HEPES 25 mM, Penicillin 100 U/ml, Streptomycin 100 μm/ml, pH7.3. After blowing and stirring, it was transferred to 15 mL centrifuge tube (430790, Corning). Centrifuge at 1000 rpm for 5 min (5810R, Eppendorf) and the supernatant was discard.
3. Adding 7 mL of culture medium (DMEM+0.1% BSA), it was pipetting into single cell suspension, after counting with Bio-RAD counter, the cell density was adjusted to 312,500 cells/ml.
4. Cells were inoculated into 384 well plates at 32 μL per well, and the cell number was controlled at 10000 cells/well. 32 μl of culture medium was added into the blank control.
Day 2: Dosing and Data Analysis
1) The compound to be tested was prepared into 50 mM working solution with DMSO.
2) 40 μl of the working solution of the compound to be tested was added into column 2 of row A-H of U-shaped 96-well plate (3797, comings), and 60 μl of DMSO was added into column 3-11. 20 μl of compound solution was sucked from the second column to the third column with a multichannel pipette blowing and stirring evenly; 20 μl of compound solution was absorbed from the third column with a multichannel pipette, then added into the fourth column, blowed and stirred to mix well; the compound was serially diluted 4-fold to a total of 10 concentrations. Column 1 and column 12 of 96-well plates were supplemented with 40 μl DMSO.
2. Intermediate Plate Configuration
1) AU-shaped 96-well plate was used, 199 μL of culture medium (DMEM+0.1% BSA) was added to each well, 1 μL of diluted compound (or DMSO) was sucked from 1000× compound plate and added into the 96-well plate at the corresponding position, blowed and stirred to mix well.
2) Homemade positive compounds and compounds to be tested were added. The cell culture plate was took out from the incubator and cells state was observed under microscope. Diluted compound in the intermediate plate or DMSO was added into the cell, 8 μl per well.
3) Cells were cultured in 37° C. and 5% CO2 for 4 hours.
3. The Substrate was Added to Detect the Binding of the Drug to the Receptor
1) 1 μmol/L CCF-4AM solution and buffer solution B, C, D were equilibrated to room temperature. LiveBLAZER™-FRET B/G Loading Kit (K1095, thermo Fisher) containing CCF-4AM and solution B, solution C, solution D were also available from Invitrogen (K1157, thermo Fisher).
2) 6× loading solution was prepared: 6 μl of CCF-4AM dissolved solution A, 60 μl of solution b, 904 μl of solution c, and 30 μl of solution D were pipetted into EP tube, blowed and stirred to mix well.
3) 8 μl of the above-mentioned liquid was sucked with a multichannel pipette, added into a 96-well plate, and incubated for 2 hours at room temperature.
4) The PerkinElmer detector was used to detect the luminous signals of each hole. FI mode, λex=409 nm, λem1=460 nm, λem2=530 nm.
4. Data Processing Using Graphpad Prism 5 (GraphPad Software. Inc)
Effective rate %=(Signal−Min)/(Max−Min)×100%.

What is called pEC50 is −log10 of the EC50, conventionally taken in molar units. With `CNC(=N)NCCC[C@H](NC(=O)[C@H](CC(C)C)NC(=O)[C@@H]1Cc2ccccc2N1C(=O)[C@H](Cc1ccccc1)NC(=O)[C@@H](NC(=O)[C@H](CC(N)=O)NC(=O)[C@@H]1CC(F)(F)CN1C(=O)[C@@H](Cc1ccco1)NC(C)=O)[C@@H](C)O)C(=O)N[C@@H](Cc1c[nH]c2ccccc12)C(N)=O` [YA-223, Ac-[3-(2-furyl)-D-Ala]-DifluoroPro-Asn-Thr-Phe-Ind-Leu-Arg(Me)-Trp-NH2] (Ac-[dAla(2-furyl)][Pro(4,4-F2)]NTF[X12]L[Arg(Me)]W-NH2), the pEC50 under setting [1] is 8.36.
On to `CNC(=N)NCCC[C@H](NC(=O)[C@H](CC(C)C)NC(=O)NNC(=O)[C@H](Cc1ccccc1)NC(=O)[C@H](Cc1ccco1)NC(=O)[C@H](CC(N)=O)NC(=O)[C@@H]1C[C@@H](O)CN1C(=O)[C@@H](Cc1ccc(O)cc1)NC(C)=O)C(=O)N[C@@H](Cc1c[nH]c2ccccc12)C(N)=O` [YA-143, Ac-D-Tyr-Hyp-Asn-2Fua-Phe-azaGly-Leu-Arg(Me)-Trp-NH2] (Ac-[dY][Hyp]N[Ala(2-furyl)]F[azaGly]L[Arg(Me)]W-NH2), for which the negative logarithm of the EC50 (pEC50) under setting [1] was 10.64.
For the compound `CCC(CC)(NC(=O)[C@H](Cc1ccccc1)NC(=O)[C@@H](NC(=O)[C@H](CC(N)=O)NC(=O)[C@@H]1C[C@@H](O)CN1C(=O)[C@@H](Cc1ccc(O)cc1)NC(C)=O)[C@@H](C)O)C(=O)N[C@@H](CC(C)C)C(=O)N[C@@H](CCCNC(=N)NC)C(=O)N[C@@H](Cc1c[nH]c2ccccc12)C(N)=O` [YA-355, Ac-(D-Tyr)-Hyp-Asn-Thr-Phe-Deg-Leu-Arg(Me)-Trp-NH2] (Ac-[dY][Hyp]NTF[Deg]L[Arg(Me)]W-NH2), the negative logarithm of the EC50 (pEC50) under setting [2] is 8.92.
As for `CNC(=N)NCCC[C@H](NC(=O)[C@H](CC(C)C)NC(=O)NNC(=O)[C@H](Cc1ccccc1)NC(=O)[C@@H](NC(=O)[C@H](CC(N)=O)NC(=O)[C@@H]1C[C@@H](O)CN1C(=O)[C@@H](Cc1ccc(F)cc1)NC(C)=O)[C@@H](C)O)C(=O)N[C@@H](Cc1c[nH]c2ccccc12)C(N)=O` [YA-170, Ac-[D-Phe(4-F)]-Hyp-Asn-Thr-Phe-azaGly-Leu-Arg(Me)-Trp-NH2] (Ac-[dPhe(4-F)][Hyp]NTF[azaGly]L[Arg(Me)]W-NH2), the pEC50 under setting [1] is 11.15.
For `CNC(=N)NCCC[C@H](NC(=O)[C@H](CC(C)C)NC(=O)NNC(=O)[C@H](Cc1ccccc1)NC(=O)[C@@H](NC(=O)[C@H](CC(N)=O)NC(=O)[C@@H]1C[C@@H](O)CN1C(=O)[C@H](Cc1ccc(F)cc1)NC(C)=O)[C@@H](C)O)C(=O)N[C@@H](Cc1c[nH]c2ccccc12)C(N)=O` [YA-71, Ac-Phe(4-F)-Hyp-Asn-Thr-Phe-azaGly-Leu-Arg(Me)-Trp-NH2] (Ac-[Phe(4-F)][Hyp]NTF[azaGly]L[Arg(Me)]W-NH2), under setting [1], the pEC50 was 10.24.
As to `CNC(=N)NCCC[C@H](NC(=O)[C@H](CC(C)C)NC(=O)NNC(=O)[C@H](Cc1ccccc1)NC(=O)[C@@H](NC(=O)[C@H](CC(N)=O)NC(=O)[C@@H]1C[C@@H](O)CN1C(=O)[C@@H](Cc1ccc(O)cc1)NC(=O)CCOCCOCCOCCOCCOCCOCCOCCOCCNC(C)=O)[C@@H](C)O)C(=O)N[C@@H](Cc1c[nH]c2ccccc12)C(N)=O` [YA-151, Ac-PEG8-(D-Tyr)-Hyp-Asn-Thr-Phe-azaGly-Leu-Arg (Me)-Trp-NH2] (Ac-[PEG8][dY][Hyp]NTF[azaGly]L[Arg(Me)]W-NH2), under setting [1], the negative logarithm of the EC50 (pEC50) was 10.35.
On to `CNC(=N)NCCC[C@H](NC(=O)[C@H](CC(C)C)NC(=O)NNC(=O)[C@H](Cc1ccccc1)NC(=O)[C@@H](NC(=O)[C@H](CC(N)=O)NC(=O)[C@@H]1C[C@@H](O)CN1C(=O)[C@@H](Cc1ccc(O)cc1)NC(C)=O)[C@@H](C)O)C(=O)N[C@@H](Cc1c[nH]c2ccccc12)c1nn[nH]n1` [YA-250, Ac-(D-Tyr)-Hyp-Asn-Thr-Phe-azaG-Leu-Arg(Me)-Trp-2H-tetrazol-5-yl] (Ac-[dY][Hyp]NTF[azaGly]L[Arg(Me)]-X7), for which, under setting [2], the pEC50 was 8.12 and 7.81.
For `CNC(=N)NCCC[C@H](NC(=O)[C@H](CC(C)C)N(C)C(=O)CCNC(=O)[C@H](Cc1ccccc1)NC(=O)[C@@H](NC(=O)[C@H](CC(N)=O)NC(=O)[C@@H]1C[C@@H](O)CN1C(=O)[C@@H](Cc1ccc(Cl)cc1Cl)NC(C)=O)[C@@H](C)O)C(=O)N[C@@H](Cc1c[nH]c2ccccc12)C(N)=O` [YA-187, Ac-[D-Phe(2,4-DiCl)]-Hyp-Asn-Thr-Phe-BetaAla-NMeLeu-Arg(Me)-Trp-NH2] (Ac-[dPhe(2,4-Cl2)][Hyp]NTF[βAla][NMeL][Arg(Me)]W-NH2), under setting [1], the pEC50 is 8.73.
On to `CNC(=N)NCCC[C@H](NC(=O)[C@H](CC(C)C)N(C)C(=O)CCNC(=O)[C@H](Cc1ccccc1)NC(=O)[C@@H](NC(=O)[C@H](CC(N)=O)NC(=O)[C@@H]1CC(F)(F)CN1C(=O)[C@@H](Cc1ccco1)NC(C)=O)[C@@H](C)O)C(=O)N[C@@H](Cc1c[nH]c2ccccc12)C(N)=O` [YA-186, Ac-[3-(2-Furyl)-D-Ala]-(DiFluorPro)-Asn-Thr-Phe-BetaAla-NMeLeu-Arg(Me)-Trp-NH2] (Ac-[dAla(2-furyl)][Pro(4,4-F2)]NTF[βAla][NMeL][Arg(Me)]W-NH2), for which, under setting [1], the pEC50 was 8.41.
As to `CNC(=N)NCCC[C@H](NC(=O)[C@H](CC(C)C)NC(=O)NNC(=O)[C@H](Cc1ccccc1)NC(=O)[C@@H](NC(=O)[C@H](CC(N)=O)NC(=O)[C@@H]1C[C@@H](O)CN1C(=O)[C@H](Cc1ccc(C(C)(C)C)cc1)NC(C)=O)[C@@H](C)O)C(=O)N[C@@H](Cc1c[nH]c2ccccc12)C(N)=O` [YA-75, Ac-Phe(4-tBu)-Hyp-Asn-Thr-Phe-azaGly-Leu-Arg(Me)-Trp-NH2] (Ac-[Phe(4-tBu)][Hyp]NTF[azaGly]L[Arg(Me)]W-NH2), the negative-log EC50 (pEC50) under setting [1] was 7.73.
Still for that read-out and setting: with `CNC(=N)NCCC[C@H](NC(=O)[C@H](CC(C)C)NC(=O)C1(NC(=O)[C@H](Cc2ccccc2)NC(=O)[C@@H](NC(=O)[C@H](CC(N)=O)NC(=O)N2CCCN2C(=O)[C@@H](Cc2ccc(Cl)cc2Cl)NC(C)=O)[C@@H](C)O)CCCCC1)C(=O)N[C@@H](Cc1c[nH]c2ccccc12)C(N)=O` [YA-200, Ac-D-Phe(2,4-DiCl)-azaPro-Asn-Thr-Phe-A6c-Leu-Arg(Me)-Trp-NH2] (Ac-[dPhe(2,4-Cl2)][azaPro]NTF[Ac6c]L[Arg(Me)]W-NH2) the figure was 7.59.
Regarding `CC(=O)N[C@H](Cc1ccc(Cl)cc1Cl)C(=O)N1CCCC[C@H]1C(=O)N[C@@H](CC(N)=O)C(=O)N[C@H](C(=O)N[C@@H](Cc1ccccc1)C(=O)NNC(=O)N[C@@H](CC(C)C)C(=O)N[C@@H](Cc1ccc(-n2cccn2)cc1)C(=O)N[C@@H](Cc1c[nH]c2ccccc12)C(N)=O)[C@@H](C)O` [YA-242, Ac-[D-Phe(2,4-diCl)]—(S-Pip)-Asn-Thr-Phe-azaGly-Leu-Phe(4-Pyrazol)-Trp-NH2] (Ac-[dPhe(2,4-Cl2)][Pip]NTF[azaGly]L[X6]W-NH2), the EC50 (NFAT-bla CHO-K1 cells that express human kiss1 receptor (GPR54), FRET, cells cultured with compound for 4 hours, read-out: GPR54 EC50/nM) is 3.75 nM. Besides, the pEC50 under setting [2] was 8.43.
Regarding `CNC(=N)NCCC[C@H](NC(=O)[C@H](CC(C)C)NC(=O)CCC(=O)[C@H](Cc1ccccc1)NC(=O)[C@@H](NC(=O)[C@H](CC(N)=O)NC(=O)[C@@H]1C[C@@H](O)CN1C(=O)[C@@H](Cc1ccc(O)cc1)NC(C)=O)[C@@H](C)O)C(=O)N[C@@H](Cc1c[nH]c2ccccc12)C(N)=O` [YA-274, M10 [Ac, D-Tyr45, Hyp46, des47, Thr49, (—CH2CH2CO—)51, Arg(Me)53, Trp54]] (Ac-[dY][Hyp]NT[X16]L[Arg(Me)]W-NH2; C-terminus assumed), the negative-log EC50 (pEC50) under setting [1] was 10.32.
Consider `CNC(=N)NCCC[C@H](NC(=O)[C@H](CC(C)C)NC(=O)C1(NC(=O)[C@H](Cc2ccccc2)NC(=O)[C@@H](NC(=O)[C@H](CC(N)=O)NC(=O)[C@@H]2C[C@@H](O)CN2C(=O)[C@@H](Cc2ccc(O)cc2)NC(C)=O)[C@@H](C)O)CCCC1)C(=O)N[C@@H](Cc1c[nH]c2ccccc12)C(N)=O` [YA-282, Ac-(D-Tyr)-Hyp-Asn-Thr-Phe-cycloLeu-Leu-Arg(Me)-Trp-NH2] (Ac-[dY][Hyp]NTF[Ac5c]L[Arg(Me)]W-NH2), for which, under setting [1], the pEC50 was 9.34.
On to `CNC(=N)NCCC[C@H](NC(=O)[C@H](CC(C)C)NC(=O)NCNC(=O)[C@H](Cc1ccccc1)NC(=O)[C@@H](NC(=O)[C@H](CC(N)=O)NC(=O)[C@@H]1C[C@@H](O)CN1C(=O)[C@@H](Cc1ccc(O)cc1)NC(C)=O)[C@@H](C)O)C(=O)N[C@@H](Cc1c[nH]c2ccccc12)C(N)=O` [YA-256, Ac-(D-Tyr)-Hyp-Asn-Thr-Phe-ψ(NH—CO—NH)Gly-Leu-Arg(Me)-Trp-NH2] (Ac-[dY][Hyp]NTF-X10), for which, under setting [2], the pEC50 was 8.59.
For the compound `CNC(=N)NCCC[C@H](NC(=O)[C@H](CC(C)C)NC(=O)NNC(=O)[C@H](Cc1ccccc1)NC(=O)[C@@H](NC(=O)[C@H](CC(N)=O)NC(=O)[C@@H]1C[C@@H](O)CN1C(=O)[C@H](Cc1cccnc1)NC(C)=O)[C@@H](C)O)C(=O)N[C@@H](Cc1c[nH]c2ccccc12)C(N)=O` [YA-69, Ac-3Pal-Hyp-Asn-Thr-Phe-azaGly-Leu-Arg(Me)-Trp-NH2] (Ac-[3Pal][Hyp]NTF[azaGly]L[Arg(Me)]W-NH2), the pEC50 under setting [1] is 9.52.

These data come from patent US11427615B2, “Peptide compound and application thereof, and composition containing peptide compound” (XDCEXPLORER (SHANGHAI) CO., LTD., priority 2017, dated 2022).
